In patent US20080269053A1, “Amino Acid Compositions and Methods of Using as Fertilizer” (priority 2007, published 2008):

Assays:
Kentucky blue grass = assay: Turfgrass quality rating, Kentucky blue grass lawns; format: in vivo, Poa pratensis; details: 1.0 lb nitrogen per 1000 sq ft per month
Method: Kentucky blue grass is often used as a turfgrass species in the cool, temperature zone as a blend of varieties or within specialized “mixes” created for various geographical locations. In this embodiment, Kentucky blue grass was fertilized under a normal application rate of 1.0 lb nitrogen per 1000 sq ft per month in high quality, high maintenance lawns. Turfgrass quality and toxicity were measured on a 1-9 visual basis with 9 representing the highest quality turf or the most injury, respectively.

Solubility in water = format: physicochemical; details: 25° C., read-out: solubility in H2O
St. Augustine grass = assay: Turfgrass quality rating, St. Augustine grass fertilized monthly; format: in vivo, Stenotaphrum secundatum
Description: St. Augustine grass was fertilized monthly at rates of between 0.5 and 3.0 lbs nitrogen/1000 square feet with lysine HCL and Liquid Lysine, which were compared with inorganic, quick release/response urea and the organic industry standard Milorganite. Urea, lysine HCl, and liquid lysine were spray/liquid applied, while Milorganite was applied as a solid granular product.
Overall turf quality was rated weekly using a visual scale of 1-9 with 9 representing perfect turf. Ratings higher than 6.0 are considered acceptable, while any rating below 6.0 is unacceptable.

Ultra-Dwarf Bermudagrass = assay: Turfgrass quality rating, Ultra-Dwarf Bermudagrass golf greens; format: in vivo, Cynodon spp.; details: normal 0.125 lb nitrogen/week rate
Description: Ultra-dwarf bermudagrass is typically mown at ⅛ inch or lower and fertilized on a weekly basis which is termed “spoon feeding”. Lysine HCl, liquid lysine, Milogranite and urea were applied under substantially the same conditions as described in Example 1. Overall turf quality was rated weekly using a visual scale of 1-9 with 9 representing perfect turf. Ratings higher than 6.0 are considered acceptable while any rating below 6.0 is unacceptable.

Creeping bentgrass [1] = assay: Phytotoxicity rating, creeping bentgrass fairways; format: in vivo, Agrostis
Description: Creeping bentgrass is a major choice for fairways, golf greens and tees in the cool-temperate zone. It has the ability to withstand close mowing and is very “aggressive” which allows for quick recovery from injuries. Creeping bentgrass was fertilized in Fairways substantially the same as described in example 1 at three different rates: half, full and 3× normal rates (0.5, 1.0 and 3.0 lbs nitrogen/1000/month) applied on a monthly basis. Turfgrass quality ratings were taken every month from June through November along with “color” and “phytotoxicity” ratings. Turfgrass quality and toxicity were measured on a 1-9 visual basis with 9 representing the highest quality turf or most injury/burn to the turfgrass. Fairways toxicity ratings and turfgrass quality ratings are shown in FIGS. 10 and 11, respectively. The most crucial months with regard to fertilizer application toxicity are the mid-summer months of July and August due to hotter and more humid conditions which typically amplify any potential for fertilizer “burn” injury.

Bermudagrass = assay: Turfgrass quality rating, Bermudagrass in golf course fairway conditions; format: in vivo, Cynodon spp.; details: monthly 0.5-3.0 lbs nitrogen/1000 sq ft
Method: Bermudagrass was grown and maintained in golf course fairway conditions. The bermudagrass was mown at a ½ inch height of cut and fertilized monthly between 0.5 and 3.0 lbs nitrogen per 1000 square feet. Lysine HCL and liquid lysine in aqueous solutions were compared with inorganic, quick release/response urea and the organic industry standard Milorganite. Urea, lysine HCl and liquid lysine were spray/liquid applied, while Milorganite was applied as a solid granular product.
Overall turf quality was rated weekly using a visual scale of 1-9 with 9 representing perfect turf (rarely attained, if ever). Ratings higher than 6.0 are considered acceptable while any rating below 6.0 is considered unacceptable. […] All fertilizers responded with acceptable turf ratings at all application rates, but lysine HCL trended better.
Bermudagrass was grown and maintained in golf course fairway conditions. The bermudagrass was mown at a ½ inch height of cut and fertilized monthly between 0.5 and 3.0 lbs nitrogen per 1000 square feet. Lysine HCl applied as a solid granular was compared with inorganic, quick release/response urea and the organic industry standard Milorganite. Urea was spray/liquid applied, while Milorganite was applied as a solid granular product.
Lysine HCL was applied as a solid granular to compare with spray applied lysine HCL and liquid lysine. […]

Bermuda grass [2] = assay: Turfgrass quality after true foliar application, Bermuda grass fairways; format: in vivo, Cynodon spp.; details: mean over seven weeks
Description: (§1) True foliar applications were studied with Tall Fescue grass. Normal foliar rates of 0.5, 1.0 and 3.0 lb nitrogen per 1000 sq ft were used with water volumes in the range of 0.5 to 2.0 gallons per 1000 sq ft (for comparison non-foliar, normal liquid spray applications are typically more than 4.0 gallons of water per 1000 sq ft.) Results are presented in FIG. 15 for mean data taken during a 5 week period. […] However, as true application rates are ⅛ the 1× rate, burn potential for foliar applications is limited.
(§2) True foliar applications were studied with Bermuda grass in Fairways at the rates used in EXAMPLE 9. Results for mean data averaged over seven weeks for burn rate and turfgrass quality are presented in FIGS. 17 and 18, respectively. […] Lysine HCl had 3-5% burn levels depending upon the rate of application.

Bermuda grass [3] = assay: Burn after true foliar application, Bermuda grass fairways; format: in vivo, Cynodon spp.
Description: as §1, §2

Creeping bentgrass [4] = assay: Phytotoxicity rating, creeping bentgrass greens; format: in vivo, Agrostis; details: bi-weekly application
Method: (§3) Creeping bentgrass is a major choice for fairways, golf greens and tees in the cool-temperate zone. It has the ability to withstand close mowing and is very “aggressive” allowing for quick recovery from injuries. It was fertilized in greens at half, full and […] rate of application (0.063, 0.125 and 0.25 lbs nitrogen/1000 sq ft) on a bi-weekly basis. Turfgrass quality and toxicity were measured on a 1-9 visual basis, with 9 representing the highest quality turf or the most injury respectively. Fairways toxicity ratings and turfgrass quality ratings are shown in FIGS. 12 and 13, respectively.

Creeping bentgrass [5] = assay: Turfgrass quality after true foliar application, creeping bentgrass greens and tees; format: in vivo, Agrostis; details: averaged over six weeks
Description: as §1
True foliar applications were studied with creeping bentgrass on greens and tees at the rates used in Example 9.

Creeping bentgrass [6] = assay: Turfgrass quality rating, creeping bentgrass greens; format: in vivo, Agrostis; details: creeping bentgrass greens, 0.063, 0.125 and 0.25 lbs nitrogen/1000 sq ft bi-weekly
Method: as §3

Cl.NCCCC[C@H](N)C(=O)O [lysine HCl, lysine monohydrochloride]
turfgrass quality (Kentucky blue grass): marginally better than urea
solubility (Solubility in water): 500 to 600 mg/mL
overall turfgrass quality and residual activity (St. Augustine grass; half-rate of 0.5 lb nitrogen, ratings higher than 6.0 acceptable): acceptable overall turfgrass quality and residual activity
overall turfgrass quality (visual scale 1-9) (St. Augustine grass; monthly 0.5-3.0 lbs nitrogen/1000 sq ft, spray applied, growing season, versus urea and Milorganite): trended better than urea and milorganite
overall turfgrass quality rating (St. Augustine grass; standard 1.0 lb nitrogen rate, compared to urea and milorganite): noticeably higher
overall turf quality performance (Ultra-Dwarf Bermudagrass): statistically the same as that of urea
phytotoxicity (injury) rating, visual 1-9 (Creeping bentgrass [1]; July): insignificant level of injury
overall turf quality (visual scale 1-9) (Bermudagrass; applied as solid granular): as effective as or more effective than Milorganite and urea
total seasonal turfgrass quality (visual scale 1-9) (Bermudagrass; aqueous spray applied): seasonally better turfgrass quality at all rates tested compared to urea and milorganite
turfgrass quality rating (Bermuda grass [2]): better than Coron and control plots
burn level (Bermuda grass [3]; depending upon rate of application, mean over seven weeks): 3-5%
burn potential (Bermuda grass [3]; turfgrasses recover quickly): high burn potential
toxicity rating, visual 1-9 (Creeping bentgrass [4]; June and July): Slight and insignificant levels of toxicity
turfgrass quality rating (Creeping bentgrass [5]): statistically equal qualities as Coron
turfgrass quality rating (Creeping bentgrass [6]): slightly better than the blended synthetic products and Milogranite

NC(N)=O [urea, reference compound]
phytotoxicity (injury) rating, visual 1-9 (Creeping bentgrass [1]; August): significantly more injury than liquid lysine and lysine HCl
toxicity rating, visual 1-9 (Creeping bentgrass [4]; August): significantly higher toxicity levels
